From patent US20180298405A1, “METHODS AND COMPOSITIONS TO INCREASE HUMAN SOMATIC CELL NUCLEAR TRANSFER (SCNT) EFFICIENCY BY REMOVING HISTONE H3-LYSINE TRIMETHYLATION, AND DERIVATION OF HUMAN NT-ESC” (CHILDREN'S MEDICAL CENTER CORPORATION, priority 2015, published 2018)
Values joined by “and” are separate entries in the source; they are usually repeats but may differ in a detail not shown here. Identical values can stand only once.

Experiments:
[1] = tested on: H3K9me3; test: Immunostaining of H3K9me3 in 1-cell mouse SCNT embryos after mRNA injection; format: cell-based; conditions: 1-cell stage, 5 hours after mRNA injection
Protocol: Mouse somatic cell nuclear transfer was carried out as described previously (Matoba et al., 2014). Briefly, both recipient MII oocytes and donor cumulus cells were collected from adult BDF1 female mice through superovulation by injecting 7.5 IU of pregnant mare serum gonadotropin (PMSG; Millipore #367222) and 7.5 IU of human chorionic gonadotropin (hCG; Millipore #230734). Fifteen to seventeen hours after the hCG injection, cumulus-oocyte complexes (COCs) were collected from the oviducts and treated briefly with Hepes-buffered potassium simplex-optimized medium (KSOM) containing 300 U/ml bovine testicular hyaluronidase (Calbiochem #385931) to obtain dissociated MII oocytes and cumulus cells. Isolated MII oocytes were enucleated in Hepes-buffered KSOM medium containing 7.5 jig/ml of cytochalasin B (Calbiochem #250233) by using Piezo-driven micromanipulator (Primetech # PMM-150FU). The nuclei of donor cumulus cells were injected into the enucleated oocytes. After 1 h incubation in KSOM, reconstructed SCNT oocytes were activated by incubating in Ca-free KSOM containing 2.5 mM SrCl2 and 5 jig/ml cytochalasin B for 1 h, and further cultured in KSOM with cytochalasin B for 4 h. […] Preimplantation developmental rates were analyzed by Student's T-test. […]

[2] = tested on: mouse SCNT embryos; test: Preimplantation development of KDM4A-assisted mouse SCNT embryos; format: cell-based; conditions: cumulus donor cells, mRNA injected at 5-6 hpa; for % blast per 2-cell ± SD: blastocyst stage
Protocol: B6D2F1/J (BDF1) mice were produced by crossing C57BL/6J females with DBA/2J males, and were used for the collection of both oocyte and somatic nuclear donor for SCNT. All animal experiments were approved by the Institutional Animal Care and Use Committee of Harvard Medical School.
In vitro transcription was performed as described previously (Matoba et al., 2014). Briefly, full length human KDM4A/JHDM3A cDNA was cloned into a pcDNA3.1 plasmid containing poly(A)83 at the 3′ end of cloning site. The catalytic defective mutant form of KDM4A (H188A) was generated using PrimeSTAR mutagenesis kit (TAKARA # R045A). mRNA was synthesized using the mMESSAGE mMACHINE T7 Ultra Kit (Life technologies # AM1345). The synthesized mRNA was dissolved in nuclease-free water. The concentration of mRNA was measured by NanoDrop ND-1000 spectrophotometer (NanoDrop Technologies). Aliquots of mRNA were stored at −80° C. until use.
Mouse somatic cell nuclear transfer was carried out as described previously (Matoba et al., 2014). Briefly, both recipient MII oocytes and donor cumulus cells were collected from adult BDF1 female mice through superovulation by injecting 7.5 IU of pregnant mare serum gonadotropin (PMSG; Millipore #367222) and 7.5 IU of human chorionic gonadotropin (hCG; Millipore #230734). Fifteen to seventeen hours after the hCG injection, cumulus-oocyte complexes (COCs) were collected from the oviducts and treated briefly with Hepes-buffered potassium simplex-optimized medium (KSOM) containing 300 U/ml bovine testicular hyaluronidase (Calbiochem #385931) to obtain dissociated MII oocytes and cumulus cells. Isolated MII oocytes were enucleated in Hepes-buffered KSOM medium containing 7.5 jig/ml of cytochalasin B (Calbiochem #250233) by using Piezo-driven micromanipulator (Primetech # PMM-150FU). The nuclei of donor cumulus cells were injected into the enucleated oocytes. After 1 h incubation in KSOM, reconstructed SCNT oocytes were activated by incubating in Ca-free KSOM containing 2.5 mM SrCl2 and 5 jig/ml cytochalasin B for 1 h, and further cultured in KSOM with cytochalasin B for 4 h. Activated SCNT embryos were washed 5 hrs after the onset of SrCl2 treatment (hours post activation, hpa) and cultured in KSOM in a humidified atmosphere with 5% CO2 at 37.8° C. The SCNT embryos were injected with ˜10 pl of water (control), 1500 ng/μ1 wild-type or mutant (H188A) human KDM4A mRNA at 5-6 hpa by using a Piezo-driven micromanipulator. Preimplantation developmental rates were analyzed by Student's T-test.

For “KDM4A mRNA: in vitro transcribed mRNA of full length human KDM4A/JHDM3A cDNA, an H3K9me3 demethylase (SEQ ID NO: 1)”, the “H3K9me3 levels in the nucleus of mouse SCNT embryos” value [1] was “greatly reduced H3K9me3 levels”, the “% 4-cell per 2-cell ± SD” value [2] was 43.3 ± 7.6% and the “% cleaved per 1-cell ± SD” value [2] was 93.7 ± 2.7%. The “% morula per 2-cell ± SD” value [2] was 35.5 ± 13.5%, the “% blast per 2-cell ± SD” value [2] was 90.3% and 90% and the “% blast per 2-cell ± SD” value ([2]; listed as KDM4A) was 23.7 ± 11.6%. For the same substance, the “% blast per 2-cell ± SD” value ([2]; listed as KDM4A WT) was 90.3 ± 0.3 %, the “% 4-cell per 2-cell ± SD” value ([2]; listed as KDM4A WT) was 96.8 ± 2.7 % and the “% cleaved per 1-cell ± SD” value ([2]; listed as KDM4A WT) was 97.0 ± 5.2%. The “% morula per 2-cell ± SD” value ([2]; listed as KDM4A WT) was 92.5 ± 3.6 %.
